# From the kinase profiling compilation of Christmann-Franck et al. (2016)
# What was measured:
# Test in all cases: radiometric filter-binding kinase assay, Kinase HotSpot
# Details in all cases: compound 0.5 µM; ATP 10 µM
# TXK (human) = TXK (human) (UniProt P42681)
# DYRK2 (human) = DYRK2 (human) (UniProt Q92630)
# CDK9 CCNK (human) = CDK9 CCNK (human) (UniProt O75909+P50750)
# STK4 (human) = STK4 (human) (UniProt Q13043)
# PTK2B (human) = PTK2B (human) (UniProt Q14289)
# RPS6KA6 KD1 KD2 (human) = RPS6KA6 KD1 KD2 (human) (UniProt Q9UK32)
# HCK (human) = HCK (human) (UniProt P08631)
# MAP2K1 (human) = MAP2K1 (human) (UniProt Q02750)
# DAPK1 (human) = DAPK1 (human) (UniProt P53355)
# PRKCA (human) = PRKCA (human) (UniProt P17252)
# RPS6KB2 (human) = RPS6KB2 (human) (UniProt Q9UBS0)
# SRC (human) = SRC (human) (UniProt P12931)
# MST4 (human) = MST4 (human) (UniProt Q9P289)
# MAP3K9 (human) = MAP3K9 (human) (UniProt P80192)
# HIPK2 (human) = HIPK2 (human) (UniProt Q9H2X6)
# PLK1 (human) = PLK1 (human) (UniProt P53350)
# PRKACA (human) = PRKACA (human) (UniProt P17612)
# BTK (human) = BTK (human) (UniProt Q06187)
# MARK3 (human) = MARK3 (human) (UniProt P27448)
# PLK3 (human) = PLK3 (human) (UniProt Q9H4B4)
# DSTYK (human) = DSTYK (human) (UniProt Q6XUX3)
# EPHA5 (human) = EPHA5 (human) (UniProt P54756)
# CLK4 (human) = CLK4 (human) (UniProt Q9HAZ1)
# ERBB2 (human) = ERBB2 (human) (UniProt P04626)
# ITK (human) = ITK (human) (UniProt Q08881)
# SRPK3 (human) = SRPK3 (human) (UniProt Q9UPE1)
# DCLK2 (human) = DCLK2 (human) (UniProt Q8N568)
# CSNK1D (human) = CSNK1D (human) (UniProt P48730)
# WEE1 (human) = WEE1 (human) (UniProt P30291)
# FGFR3 (human) = FGFR3 (human) (UniProt P22607)
# YES1 (human) = YES1 (human) (UniProt P07947)
# AURKA (human) = AURKA (human) (UniProt O14965)
# STK24 (human) = STK24 (human) (UniProt Q9Y6E0)
# NEK6 (human) = NEK6 (human) (UniProt Q9HC98)
# FGR (human) = FGR (human) (UniProt P09769)
# GSG2 (human) = GSG2 (human) (UniProt Q8TF76)
# FES (human) = FES (human) (UniProt P07332)
# KDR (human) = KDR (human) (UniProt P35968)
# PRKCB1 (human) = PRKCB1 (human) (UniProt P05771)
# CDC42BPB (human) = CDC42BPB (human) (UniProt Q9Y5S2)
# BMX (human) = BMX (human) (UniProt P51813)
# WNK2 (human) = WNK2 (human) (UniProt Q9Y3S1)
# Chain of SRC (human) (P12931 whole entry, looked up): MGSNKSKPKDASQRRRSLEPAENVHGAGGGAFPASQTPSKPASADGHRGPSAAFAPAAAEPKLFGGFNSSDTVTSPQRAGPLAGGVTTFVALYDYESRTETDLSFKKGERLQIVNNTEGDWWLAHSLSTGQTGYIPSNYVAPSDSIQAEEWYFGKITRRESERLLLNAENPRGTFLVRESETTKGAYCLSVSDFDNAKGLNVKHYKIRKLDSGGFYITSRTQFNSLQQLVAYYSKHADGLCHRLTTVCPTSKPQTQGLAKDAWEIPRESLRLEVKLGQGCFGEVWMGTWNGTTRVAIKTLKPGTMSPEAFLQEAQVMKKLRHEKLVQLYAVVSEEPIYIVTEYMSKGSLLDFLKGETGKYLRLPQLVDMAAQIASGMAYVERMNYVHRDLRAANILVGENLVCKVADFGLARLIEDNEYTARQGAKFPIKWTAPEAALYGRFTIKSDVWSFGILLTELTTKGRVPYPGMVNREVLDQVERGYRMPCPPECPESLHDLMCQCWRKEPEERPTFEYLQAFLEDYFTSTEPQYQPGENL
# Chain of DCLK2 (human) (Q8N568 whole entry, looked up): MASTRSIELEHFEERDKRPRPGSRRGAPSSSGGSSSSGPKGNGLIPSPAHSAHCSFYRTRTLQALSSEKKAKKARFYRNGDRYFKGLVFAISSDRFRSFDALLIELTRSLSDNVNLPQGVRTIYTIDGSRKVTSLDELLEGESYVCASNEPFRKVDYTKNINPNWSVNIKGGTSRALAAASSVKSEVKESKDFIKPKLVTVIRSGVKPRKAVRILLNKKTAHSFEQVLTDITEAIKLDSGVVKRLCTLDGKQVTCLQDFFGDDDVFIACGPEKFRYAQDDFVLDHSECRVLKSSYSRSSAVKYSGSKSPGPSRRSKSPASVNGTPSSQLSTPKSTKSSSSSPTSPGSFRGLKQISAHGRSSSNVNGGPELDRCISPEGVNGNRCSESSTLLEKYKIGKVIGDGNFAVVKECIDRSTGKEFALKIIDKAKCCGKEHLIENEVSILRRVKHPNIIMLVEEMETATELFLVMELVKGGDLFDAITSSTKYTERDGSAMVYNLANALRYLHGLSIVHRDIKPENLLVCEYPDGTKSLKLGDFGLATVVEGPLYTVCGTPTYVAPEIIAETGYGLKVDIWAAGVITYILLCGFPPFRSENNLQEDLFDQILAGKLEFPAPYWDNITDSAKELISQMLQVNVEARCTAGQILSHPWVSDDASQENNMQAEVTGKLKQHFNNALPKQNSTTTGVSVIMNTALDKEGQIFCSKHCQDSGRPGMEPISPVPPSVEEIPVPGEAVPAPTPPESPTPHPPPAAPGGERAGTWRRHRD
# Chain of EPHA5 (human) (P54756 whole entry, looked up): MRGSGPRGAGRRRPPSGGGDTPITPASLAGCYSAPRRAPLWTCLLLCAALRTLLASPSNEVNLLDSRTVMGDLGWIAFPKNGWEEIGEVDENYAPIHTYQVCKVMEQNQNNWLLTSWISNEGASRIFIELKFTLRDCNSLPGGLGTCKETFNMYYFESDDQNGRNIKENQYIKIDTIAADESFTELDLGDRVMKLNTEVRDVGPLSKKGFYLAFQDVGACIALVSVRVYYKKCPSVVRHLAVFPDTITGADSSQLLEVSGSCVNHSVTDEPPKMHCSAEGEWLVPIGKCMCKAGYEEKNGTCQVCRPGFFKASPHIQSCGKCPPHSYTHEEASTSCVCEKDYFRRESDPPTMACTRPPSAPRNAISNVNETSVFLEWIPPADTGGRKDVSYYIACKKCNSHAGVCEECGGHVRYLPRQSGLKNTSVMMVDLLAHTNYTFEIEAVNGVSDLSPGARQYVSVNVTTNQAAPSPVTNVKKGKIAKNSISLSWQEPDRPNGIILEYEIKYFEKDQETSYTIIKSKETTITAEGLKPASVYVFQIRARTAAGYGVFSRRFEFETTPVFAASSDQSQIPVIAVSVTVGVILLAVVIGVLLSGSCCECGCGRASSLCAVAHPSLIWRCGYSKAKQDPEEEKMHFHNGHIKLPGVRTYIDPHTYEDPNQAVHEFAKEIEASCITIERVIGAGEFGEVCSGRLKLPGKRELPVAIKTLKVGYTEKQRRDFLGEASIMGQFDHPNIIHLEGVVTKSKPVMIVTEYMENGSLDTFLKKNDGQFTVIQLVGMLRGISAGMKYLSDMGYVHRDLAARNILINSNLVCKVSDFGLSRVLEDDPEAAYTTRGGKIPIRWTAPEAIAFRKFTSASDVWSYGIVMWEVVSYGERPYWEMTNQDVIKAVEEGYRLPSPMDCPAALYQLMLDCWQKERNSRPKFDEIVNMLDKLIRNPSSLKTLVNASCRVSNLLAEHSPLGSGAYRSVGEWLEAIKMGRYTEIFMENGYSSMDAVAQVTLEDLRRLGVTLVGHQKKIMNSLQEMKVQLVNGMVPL
# Chain of MST4 (human) (Q9P289 whole entry, looked up): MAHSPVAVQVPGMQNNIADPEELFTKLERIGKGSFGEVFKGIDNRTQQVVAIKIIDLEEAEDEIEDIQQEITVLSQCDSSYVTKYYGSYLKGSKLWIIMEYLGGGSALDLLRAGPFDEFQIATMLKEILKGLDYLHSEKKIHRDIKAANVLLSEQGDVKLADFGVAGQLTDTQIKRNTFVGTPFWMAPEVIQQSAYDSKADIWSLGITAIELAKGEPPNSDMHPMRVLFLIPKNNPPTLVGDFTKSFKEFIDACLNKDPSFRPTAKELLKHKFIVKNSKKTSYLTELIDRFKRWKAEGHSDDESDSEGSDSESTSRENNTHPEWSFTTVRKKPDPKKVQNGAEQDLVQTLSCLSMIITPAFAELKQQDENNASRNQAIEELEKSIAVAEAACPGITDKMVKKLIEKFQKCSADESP
# Chain of RPS6KA6 KD1 KD2 (human) (Q9UK32 whole entry, looked up): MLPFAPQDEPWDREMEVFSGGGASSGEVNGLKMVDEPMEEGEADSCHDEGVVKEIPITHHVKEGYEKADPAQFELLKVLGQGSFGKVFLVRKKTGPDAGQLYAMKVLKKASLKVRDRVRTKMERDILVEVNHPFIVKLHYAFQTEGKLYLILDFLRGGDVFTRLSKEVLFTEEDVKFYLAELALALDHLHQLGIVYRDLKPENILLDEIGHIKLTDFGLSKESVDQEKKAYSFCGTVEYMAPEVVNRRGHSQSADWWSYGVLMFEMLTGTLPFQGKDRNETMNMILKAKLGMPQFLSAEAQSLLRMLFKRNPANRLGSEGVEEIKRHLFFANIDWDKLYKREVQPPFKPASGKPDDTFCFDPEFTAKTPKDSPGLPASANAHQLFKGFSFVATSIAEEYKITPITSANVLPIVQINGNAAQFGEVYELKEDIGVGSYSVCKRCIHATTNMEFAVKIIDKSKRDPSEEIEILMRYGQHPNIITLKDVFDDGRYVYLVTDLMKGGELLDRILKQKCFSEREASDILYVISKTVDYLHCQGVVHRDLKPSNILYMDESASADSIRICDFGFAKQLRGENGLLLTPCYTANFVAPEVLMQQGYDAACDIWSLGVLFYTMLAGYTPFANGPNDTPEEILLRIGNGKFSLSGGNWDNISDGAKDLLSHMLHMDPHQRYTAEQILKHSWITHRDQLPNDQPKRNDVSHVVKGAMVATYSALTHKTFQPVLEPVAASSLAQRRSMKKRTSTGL
# Chain of DSTYK (human) (Q6XUX3 whole entry, looked up): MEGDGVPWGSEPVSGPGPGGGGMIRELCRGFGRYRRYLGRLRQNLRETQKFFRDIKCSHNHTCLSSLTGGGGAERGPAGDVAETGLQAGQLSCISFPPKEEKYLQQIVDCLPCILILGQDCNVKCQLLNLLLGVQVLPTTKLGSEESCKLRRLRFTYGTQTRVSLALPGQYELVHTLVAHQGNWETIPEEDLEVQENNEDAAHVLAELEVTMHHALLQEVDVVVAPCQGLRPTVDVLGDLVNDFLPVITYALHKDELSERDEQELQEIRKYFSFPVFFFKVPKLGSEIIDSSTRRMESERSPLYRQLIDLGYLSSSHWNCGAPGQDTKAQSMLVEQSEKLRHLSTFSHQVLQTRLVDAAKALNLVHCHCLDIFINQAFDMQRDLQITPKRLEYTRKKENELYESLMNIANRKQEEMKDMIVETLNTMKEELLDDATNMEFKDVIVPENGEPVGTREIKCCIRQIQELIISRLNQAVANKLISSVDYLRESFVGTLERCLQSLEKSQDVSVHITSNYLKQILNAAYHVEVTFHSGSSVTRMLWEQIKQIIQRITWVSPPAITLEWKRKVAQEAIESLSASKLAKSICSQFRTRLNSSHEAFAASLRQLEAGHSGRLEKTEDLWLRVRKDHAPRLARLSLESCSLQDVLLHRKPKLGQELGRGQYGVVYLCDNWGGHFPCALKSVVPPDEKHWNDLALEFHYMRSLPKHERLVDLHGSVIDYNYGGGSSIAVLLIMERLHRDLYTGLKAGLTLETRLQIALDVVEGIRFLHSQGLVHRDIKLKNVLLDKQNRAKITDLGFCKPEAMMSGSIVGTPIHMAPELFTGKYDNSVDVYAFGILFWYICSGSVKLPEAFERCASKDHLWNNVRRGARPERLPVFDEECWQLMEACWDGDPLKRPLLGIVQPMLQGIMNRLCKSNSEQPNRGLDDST
# Chain of CSNK1D (human) (P48730 whole entry, looked up): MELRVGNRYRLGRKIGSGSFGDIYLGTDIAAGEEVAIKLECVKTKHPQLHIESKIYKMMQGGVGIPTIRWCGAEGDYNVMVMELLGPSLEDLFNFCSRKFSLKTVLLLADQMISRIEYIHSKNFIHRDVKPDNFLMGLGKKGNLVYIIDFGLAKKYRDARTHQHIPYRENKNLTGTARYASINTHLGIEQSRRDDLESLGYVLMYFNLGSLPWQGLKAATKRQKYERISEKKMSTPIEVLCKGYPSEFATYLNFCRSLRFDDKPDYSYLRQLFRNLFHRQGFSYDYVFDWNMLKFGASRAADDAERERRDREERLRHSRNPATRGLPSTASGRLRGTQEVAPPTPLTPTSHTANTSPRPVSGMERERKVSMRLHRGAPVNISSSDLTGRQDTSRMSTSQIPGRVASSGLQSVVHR
smiles,measurement,setting,value
COc1cc2ncc(-c3ccccc3)nc2cc1OC,residual activity,TXK (human),93.4%
same,residual activity,DYRK2 (human),95.9%
same,residual activity,CDK9 CCNK (human),102%
same,residual activity,STK4 (human),96.3%
same,residual activity,PTK2B (human),85.9%
same,residual activity,RPS6KA6 KD1 KD2 (human),98.5%
same,residual activity,HCK (human),96.9%
same,residual activity,MAP2K1 (human),97.6%
same,residual activity,DAPK1 (human),99.7%
same,residual activity,PRKCA (human),103%
same,residual activity,RPS6KB2 (human),104%
same,residual activity,SRC (human),96.1%
same,residual activity,MST4 (human),109%
same,residual activity,MAP3K9 (human),85.4%
same,residual activity,HIPK2 (human),78.7%
same,residual activity,PLK1 (human),98.5%
same,residual activity,PRKACA (human),99.4%
same,residual activity,BTK (human),98%
same,residual activity,MARK3 (human),98.2%
same,residual activity,PLK3 (human),98.3%
same,residual activity,DSTYK (human),82.7%
same,residual activity,EPHA5 (human),99.9%
same,residual activity,CLK4 (human),102%
same,residual activity,ERBB2 (human),116%
same,residual activity,ITK (human),97.8%
same,residual activity,SRPK3 (human),91.1%
same,residual activity,DCLK2 (human),96%
same,residual activity,CSNK1D (human),101%
same,residual activity,WEE1 (human),82.8%
same,residual activity,FGFR3 (human),96%
same,residual activity,YES1 (human),96.1%
same,residual activity,AURKA (human),90.3%
same,residual activity,STK24 (human),104%
same,residual activity,NEK6 (human),93.8%
same,residual activity,FGR (human),85.4%
same,residual activity,GSG2 (human),92.1%
same,residual activity,FES (human),105%
same,residual activity,KDR (human),85.4%
same,residual activity,PRKCB1 (human),105%
same,residual activity,CDC42BPB (human),93.3%
same,residual activity,BMX (human),92.2%
same,residual activity,WNK2 (human),104%
O=C1Nc2ccccc2/C1=C1/Nc2ccccc2/C1=N\OCCC(O)CO (stereo unspecified),residual activity,TXK (human),25.6%
same,residual activity,DYRK2 (human),61.4%
same,residual activity,CDK9 CCNK (human),33.2%
same,residual activity,STK4 (human),8.29%
same,residual activity,PTK2B (human),30.5%
same,residual activity,RPS6KA6 KD1 KD2 (human),16.4%
same,residual activity,HCK (human),23%
same,residual activity,MAP2K1 (human),99.7%
same,residual activity,DAPK1 (human),80.9%
same,residual activity,PRKCA (human),101%
same,residual activity,RPS6KB2 (human),106%
same,residual activity,SRC (human),22.6%
same,residual activity,MST4 (human),73.1%
same,residual activity,MAP3K9 (human),7.06%
same,residual activity,HIPK2 (human),97.6%
same,residual activity,PLK1 (human),103%
same,residual activity,PRKACA (human),89.1%
same,residual activity,BTK (human),24.1%
same,residual activity,MARK3 (human),75.2%
same,residual activity,PLK3 (human),102%
same,residual activity,DSTYK (human),104%
same,residual activity,EPHA5 (human),68%
same,residual activity,CLK4 (human),6.19%
same,residual activity,ERBB2 (human),95.3%
same,residual activity,ITK (human),34.8%
same,residual activity,SRPK3 (human),59.5%
same,residual activity,DCLK2 (human),86.4%
same,residual activity,CSNK1D (human),52.9%
same,residual activity,WEE1 (human),82%
same,residual activity,FGFR3 (human),45.8%
same,residual activity,YES1 (human),13.4%
same,residual activity,AURKA (human),9.78%
same,residual activity,STK24 (human),51.9%
same,residual activity,NEK6 (human),96.3%
same,residual activity,FGR (human),11.6%
same,residual activity,GSG2 (human),32.8%
same,residual activity,FES (human),81.7%
same,residual activity,KDR (human),56.4%
same,residual activity,PRKCB1 (human),93.6%
same,residual activity,CDC42BPB (human),96.6%
same,residual activity,BMX (human),40.2%
same,residual activity,WNK2 (human),85.4%
Oc1ccc(Nc2nc(-c3ccc(Cl)cc3)cs2)cc1,residual activity,TXK (human),100%
same,residual activity,DYRK2 (human),91.2%
same,residual activity,CDK9 CCNK (human),102%
same,residual activity,STK4 (human),106%
same,residual activity,PTK2B (human),100%
same,residual activity,RPS6KA6 KD1 KD2 (human),117%
same,residual activity,HCK (human),96.1%
same,residual activity,MAP2K1 (human),90.7%
same,residual activity,DAPK1 (human),101%
same,residual activity,PRKCA (human),113%
same,residual activity,RPS6KB2 (human),99.8%
same,residual activity,SRC (human),95.1%
same,residual activity,MST4 (human),105%
same,residual activity,MAP3K9 (human),80.9%
same,residual activity,HIPK2 (human),90.9%
same,residual activity,PLK1 (human),106%
same,residual activity,PRKACA (human),105%
same,residual activity,BTK (human),107%
same,residual activity,MARK3 (human),95.3%
same,residual activity,PLK3 (human),97.4%
same,residual activity,DSTYK (human),104%
same,residual activity,EPHA5 (human),92.6%
same,residual activity,CLK4 (human),98.8%
same,residual activity,ERBB2 (human),96.9%
same,residual activity,ITK (human),95.4%
same,residual activity,SRPK3 (human),98.1%
same,residual activity,DCLK2 (human),98.5%
same,residual activity,CSNK1D (human),105%
same,residual activity,WEE1 (human),93.2%
same,residual activity,FGFR3 (human),96.5%
same,residual activity,YES1 (human),99.2%
same,residual activity,AURKA (human),89.4%
same,residual activity,STK24 (human),94.1%
same,residual activity,NEK6 (human),95.2%
same,residual activity,FGR (human),96.4%
same,residual activity,GSG2 (human),100%
same,residual activity,FES (human),103%
same,residual activity,KDR (human),101%
same,residual activity,PRKCB1 (human),101%
same,residual activity,CDC42BPB (human),108%
same,residual activity,BMX (human),103%
same,residual activity,WNK2 (human),101%
